Test results published in PubChem BioAssay (NCI).
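Exposure lasted 48 hours, with cells grown in 96-well plates and compounds tested at five concentrations. At the GI50, growth is halved. TGI is the concentration that stops growth completely.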

Assays:
Assay in all cases: NCI tumour cell line growth inhibition, 48 h
IGROV1 ovarian = system: IGROV1 ovarian
NCI-H226 lung = system: NCI-H226 lung
SNB-19 CNS = system: SNB-19 CNS
SR leukemia = system: SR leukemia
CCRF-CEM leukemia = system: CCRF-CEM leukemia
CAKI-1 renal = system: CAKI-1 renal
SF-268 CNS = system: SF-268 CNS
RPMI-8226 leukemia = system: RPMI-8226 leukemia
RXF 393 renal = system: RXF 393 renal
DU-145 prostate = system: DU-145 prostate
PC-3 prostate = system: PC-3 prostate
ACHN renal = system: ACHN renal
HS 578T breast = system: HS 578T breast
HCC-2998 colon = system: HCC-2998 colon
UO-31 renal = system: UO-31 renal
OVCAR-3 ovarian = system: OVCAR-3 ovarian
SF-295 CNS = system: SF-295 CNS
SK-MEL-5 melanoma = system: SK-MEL-5 melanoma
MDA-MB-435 = system: MDA-MB-435
NCI/ADR-RES ovarian = system: NCI/ADR-RES ovarian
SK-OV-3 ovarian = system: SK-OV-3 ovarian
EKVX NSCLC = system: EKVX NSCLC
T-47D breast = system: T-47D breast
M14 melanoma = system: M14 melanoma
OVCAR-4 ovarian = system: OVCAR-4 ovarian
SNB-75 CNS = system: SNB-75 CNS
OVCAR-8 ovarian = system: OVCAR-8 ovarian
UACC-62 melanoma = system: UACC-62 melanoma
NCI-H460 lung = system: NCI-H460 lung
SK-MEL-28 melanoma = system: SK-MEL-28 melanoma
U251 CNS = system: U251 CNS
HCT-15 colon = system: HCT-15 colon
HOP-92 NSCLC = system: HOP-92 NSCLC
SK-MEL-2 melanoma = system: SK-MEL-2 melanoma
LOX IMVI melanoma = system: LOX IMVI melanoma
NCI-H23 lung = system: NCI-H23 lung
OVCAR-5 ovarian = system: OVCAR-5 ovarian
KM12 colon = system: KM12 colon
UACC-257 melanoma = system: UACC-257 melanoma
SF-539 CNS = system: SF-539 CNS
HT29 colon = system: HT29 colon
MCF7 breast = system: MCF7 breast
786-0 renal = system: 786-0 renal
COLO 205 colon = system: COLO 205 colon
SW-620 colon = system: SW-620 colon
A498 renal = system: A498 renal
SN12C renal = system: SN12C renal
MOLT-4 leukemia = system: MOLT-4 leukemia
HOP-62 NSCLC = system: HOP-62 NSCLC
MALME-3M melanoma = system: MALME-3M melanoma
TK-10 renal = system: TK-10 renal
HCT-116 colon = system: HCT-116 colon
NCI-H522 lung = system: NCI-H522 lung
K-562 leukemia = system: K-562 leukemia
A549 NSCLC = system: A549 NSCLC
HL-60(TB) leukemia = system: HL-60(TB) leukemia
BT-549 breast = system: BT-549 breast

With `CCCCNC(c1ccc(Cl)cc1)C(O)c1ccc(Cl)cc1` (centres undefined) the GI50 (IGROV1 ovarian) was 2.41 µM, the TGI (IGROV1 ovarian) was 12.4 µM and the GI50 (NCI-H226 lung) was 6.58 µM. The TGI (NCI-H226 lung) was 25.1 µM, the GI50 (SNB-19 CNS) was 2.09 µM and the TGI (SNB-19 CNS) was 5.74 µM. For the same compound, the GI50 (SR leukemia) was 1.07 µM, the TGI (SR leukemia) was 3.75 µM and the GI50 (CCRF-CEM leukemia) was 2.49 µM. It also gave a TGI (CCRF-CEM leukemia) of 8.65 µM, a GI50 (CAKI-1 renal) of 1.82 µM and a TGI (CAKI-1 renal) of 6.63 µM. For the same compound, the GI50 (SF-268 CNS) was 3.21 µM, the TGI (SF-268 CNS) was 16.3 µM and the GI50 (RPMI-8226 leukemia) was 2.09 µM. It also gave a TGI (RPMI-8226 leukemia) of 5.51 µM, a GI50 (RXF 393 renal) of 1.49 µM and a TGI (RXF 393 renal) of 3.65 µM. The GI50 (DU-145 prostate) was 3.1 µM, the TGI (DU-145 prostate) was 10.4 µM and the GI50 (PC-3 prostate) was 1.92 µM. The TGI (PC-3 prostate) was 7.47 µM, the GI50 (ACHN renal) was 2.46 µM and the TGI (ACHN renal) was 7.36 µM. For the same compound, the GI50 (HS 578T breast) was 4.98 µM, the TGI (HS 578T breast) was 26.9 µM and the GI50 (HCC-2998 colon) was 1.83 µM. For the same compound, the TGI (HCC-2998 colon) was 3.85 µM, the GI50 (UO-31 renal) was 1.55 µM and the TGI (UO-31 renal) was 10.2 µM. The GI50 (OVCAR-3 ovarian) was 1.98 µM, the TGI (OVCAR-3 ovarian) was 4.83 µM and the GI50 (SF-295 CNS) was 1.02 µM. For the same compound, the TGI (SF-295 CNS) was 2.44 µM, the GI50 (SK-MEL-5 melanoma) was 1.73 µM and the TGI (SK-MEL-5 melanoma) was 3.2 µM. The GI50 (MDA-MB-435) was 1.61 µM, the TGI (MDA-MB-435) was 3.57 µM and the GI50 (NCI/ADR-RES ovarian) was 1.81 µM. The TGI (NCI/ADR-RES ovarian) was 5.35 µM, the GI50 (SK-OV-3 ovarian) was 5.72 µM and the TGI (SK-OV-3 ovarian) was 20 µM. It also gave a GI50 (EKVX NSCLC) of 2.76 µM, a TGI (EKVX NSCLC) of 14.7 µM and a GI50 (T-47D breast) of 1.67 µM. For the same compound, the TGI (T-47D breast) was 4.52 µM, the GI50 (M14 melanoma) was 1.22 µM and the TGI (M14 melanoma) was 2.9 µM. The GI50 (OVCAR-4 ovarian) was 2.87 µM, the TGI (OVCAR-4 ovarian) was 13.5 µM and the GI50 (SNB-75 CNS) was 1.93 µM. It also gave a TGI (SNB-75 CNS) of 11.4 µM, a GI50 (OVCAR-8 ovarian) of 2.51 µM and a TGI (OVCAR-8 ovarian) of 6.02 µM. It also gave a GI50 (UACC-62 melanoma) of 1.49 µM, a TGI (UACC-62 melanoma) of 3.18 µM and a GI50 (NCI-H460 lung) of 1.76 µM. The TGI (NCI-H460 lung) was 4.41 µM, the GI50 (SK-MEL-28 melanoma) was 2.06 µM and the TGI (SK-MEL-28 melanoma) was 4.5 µM. For the same compound, the GI50 (U251 CNS) was 1.75 µM, the TGI (U251 CNS) was 3.65 µM and the GI50 (HCT-15 colon) was 2.08 µM. It also gave a TGI (HCT-15 colon) of 5.7 µM, a GI50 (HOP-92 NSCLC) of 1.13 µM and a TGI (HOP-92 NSCLC) of 5.16 µM. It also gave a GI50 (SK-MEL-2 melanoma) of 1.81 µM, a TGI (SK-MEL-2 melanoma) of 3.68 µM and a GI50 (LOX IMVI melanoma) of 1.39 µM. For the same compound, the TGI (LOX IMVI melanoma) was 2.7 µM, the GI50 (NCI-H23 lung) was 2.25 µM and the TGI (NCI-H23 lung) was 7.59 µM. The GI50 (OVCAR-5 ovarian) was 2.94 µM, the TGI (OVCAR-5 ovarian) was 15.7 µM and the GI50 (KM12 colon) was 2.04 µM. For the same compound, the TGI (KM12 colon) was 5.34 µM, the GI50 (UACC-257 melanoma) was 2.25 µM and the TGI (UACC-257 melanoma) was 5.03 µM. It also gave a GI50 (SF-539 CNS) of 1.83 µM, a TGI (SF-539 CNS) of 3.57 µM and a GI50 (HT29 colon) of 0.792 µM. The TGI (HT29 colon) was 2.74 µM, the GI50 (MCF7 breast) was 1.95 µM and the TGI (MCF7 breast) was 5.03 µM. The GI50 (786-0 renal) was 1.59 µM, the TGI (786-0 renal) was 3.95 µM and the GI50 (COLO 205 colon) was 1.56 µM. The TGI (COLO 205 colon) was 3.25 µM, the GI50 (SW-620 colon) was 1.78 µM and the TGI (SW-620 colon) was 3.93 µM. The GI50 (A498 renal) was 2.29 µM, the TGI (A498 renal) was 5.57 µM and the GI50 (SN12C renal) was 2.16 µM. The TGI (SN12C renal) was 10.6 µM, the GI50 (MOLT-4 leukemia) was 1.67 µM and the TGI (MOLT-4 leukemia) was 6.67 µM. For the same compound, the GI50 (HOP-62 NSCLC) was 2.19 µM, the TGI (HOP-62 NSCLC) was 9.71 µM and the GI50 (MALME-3M melanoma) was 1.52 µM. For the same compound, the TGI (MALME-3M melanoma) was 3.08 µM, the GI50 (TK-10 renal) was 2.2 µM and the TGI (TK-10 renal) was 6.99 µM. For the same compound, the GI50 (HCT-116 colon) was 0.938 µM, the TGI (HCT-116 colon) was 2.27 µM and the GI50 (NCI-H522 lung) was 1.56 µM. For the same compound, the TGI (NCI-H522 lung) was 3.51 µM, the GI50 (K-562 leukemia) was 2.11 µM and the TGI (K-562 leukemia) was 5.68 µM. It also gave a GI50 (A549 NSCLC) of 3.87 µM, a TGI (A549 NSCLC) of 17.8 µM and a GI50 (HL-60(TB) leukemia) of 1.02 µM. For the same compound, the TGI (HL-60(TB) leukemia) was 2.93 µM, the GI50 (BT-549 breast) was 5.63 µM and the TGI (BT-549 breast) was 21.4 µM.
